Laboratory results from patent US20240287123A1 (Victoria Link Limited, priority 2021, published 2024).
Entries after “also recorded” stand apart in the source; their conditions may differ. Like-named read-outs stand apart in the source and are kept apart here.

What was measured:
[1] = Cytotoxicity in Akata cells (CTG), concurrent with EBV assay; assay type: cell-based; settings: human, Akata cells (without virus induction), Table 1
Protocol: (§1) Each experiment that evaluates the antiviral activity of compounds includes both positive and negative control compounds to ensure the performance of each assay. Concurrent assessment of cytotoxicity was also performed for each study in the same cell line and with the same compound exposure.
Assays for EBV were performed by reported methods.^37 Akata cells were induced to undergo a lytic infection with 50 μg/ml of a goat anti-human IgG antibody. Experimental compounds were diluted within plates. The cells were added and incubated for 72 h. Similar plates were initiated without virus induction/addition and used for measuring cytotoxicity by the addition of CTG. For all assays, the replication of the virus was assessed by the quantification of viral DNA. […] Compound concentrations sufficient to reduce genome copy number by 50% were calculated from experimental data as well as compound cytotoxicity.

[2] = system: EBV (Akata/Akata); assay: EBV assay: viral DNA quantification in induced Akata cells; assay type: cell-based, Epstein-Barr virus; settings: for activity against EBV: cell-based assay, highest concentration tested in primary assays 50 μM; for EC50: human gammaherpesvirus 4, Akata
Protocol: (§2) Akata cells were obtained from Louisiana State University, Baton Rouge, LA. The HCMV strain AD169 was obtained from the American Type Culture Collection (ATCC, Manassas, VA). Akata cells latently infected with EBV were obtained from Louisiana State University, Baton Rouge, LA.
as §1
Assays for EBV were performed by reported methods.^37 Akata cells were induced to undergo a lytic infection with 50 μg/ml of a goat anti-human IgG antibody. Experimental compounds were diluted within plates. The cells were added and incubated for 72 h. Similar plates were initiated without virus induction/addition and used for measuring cytotoxicity by the addition of CTG. For all assays, the replication of the virus was assessed by the quantification of viral DNA. For EBV, primers 5′-[…]-3′ and 5′-CAG TTC CTC GCCTTAGGTTG-3 amplified a fragment corresponding to coordinates 96802-97234 in EBV genome (AJ507799). Compound concentrations sufficient to reduce genome copy number by 50% were calculated from experimental data as well as compound cytotoxicity.

[3] = Cytotoxicity in HFF cells (CellTiter-Glo), concurrent with HCMV assay; assay type: cell-based; settings: human
Protocol: (§3) Human foreskin fibroblast (HFF) cells prepared from human foreskin tissue were obtained from the University of Alabama at Birmingham tissue procurement facility with approval from its IRB. The tissue was incubated at 4° C. for 4 h in Clinical Medium consisting of minimum essential media (MEM) with Earl's salts supplemented with 10% fetal bovine serum (FBS) (Hyclone, Inc. Logan UT), L-glutamine, fungizone, and vancomycin. Tissue was then placed in phosphate buffered saline (PBS), minced, rinsed to remove the red blood cells, and resuspended in trypsin/EDTA solution. The tissue suspension was incubated at 37° C. and gently agitated to disperse the cells, which were collected by centrifugation. Cells were resuspended in 4 ml Clinical Medium and placed in a 25 cm^2 flask and incubated at 37° C. in a humidified CO2 incubator for 24 h. The media was then replaced with fresh Clinical Medium and the cell growth was monitored daily until a confluent monolayer had formed. The HFF cells were then expanded through serial passages in standard growth medium of MEM with Earl's salts supplemented with 10% FBS, L-glutamine, penicillin, and gentamycin. The cells were passaged routinely and used for assays at or below passage ^10.37,38
as §1
(§4) Assays were performed in monolayers as described.37 Cells were seeded in 384 well plates and incubated for 24 h to allow the formation of confluent monolayers. Dilutions of test drug were prepared directly in the plates and the monolayers infected at a predetermined MOI based on virus used. After incubation, cytopathology was determined by the addition of CellTiter-Glo (CTG) reagent. Concentrations of test compound sufficient to reduce CPE by 50% (EC50) or decrease cell viability by 50% (CC50) were interpolated using standard methods in Microsoft Excel. Toxicity was measured using CTG as above.

[4] = system: HCMV (AD169 strain in HFF cells); assay: CPE (cytopathic effect) assay for HCMV; assay type: cell-based, Human Cytomegalovirus
Protocol: as §3, with “gentamycin.” for “gentamycin. The cells were passaged routinely and used for assays at or below passage ^10.37,38”
as §2, §1
as §4, with “Concentrations of test compound sufficient to reduce CPE by 50% (EC50) or decrease cell viability by 50% (CC50) were interpolated using standard methods in Microsoft Excel.” left out

[5] = system: HIVADA; assay: HIV p24 alphaLISA in infected monocyte derived macrophages; assay type: cell-based, Human Immunodeficiency Virus; settings: 100 μM, infected MDM, days 2-7, compared with DMSO control
Protocol: Primary human MDMs were cultured from peripheral blood mononuclear cells and pre-treated for 24 h with ddhC (100 μM), compound 8 (100 μM), compound 21 (100 μM), emtricitabine control (15 μM, 10 μM, 1 μM, 0.1 μM), or the drug vehicle, DMSO. MDM were then infected with HIVADA in the presence of these compounds and treated daily (with compound), while culture supernatants were collected to quantify levels of HIV p24, a viral capsid protein, on days 2-7 of infection.
Leukopaks from healthy donors were obtained from the New York Blood Center and processed by Ficoll gradient centrifugation to isolate peripheral blood mononuclear cells (PBMC). These PBMC were cultured adherently into monocyte derived macrophages (MDM), according to published protocols, on 60 mm dishes for 6 days with 10-20 ng/ml macrophage colony stimulating factor (M-CSF). MDM were pre-treated with ddhC, compound 8, compound 21, emtricitabine (Cat. No .: 10071), or DMSO vehicle at indicated concentrations for 24 hours (NIH AIDS Reagent Program, Bethesda, MD). Cells were left uninfected or infected for 24 h in the presence of one of the compounds listed above with 20 ng/mL HIVADA, a macrophage-tropic HIV strain originally derived from a person with HIV (NIH). Media was changed daily with the mentioned compounds added each time, and supernatants were collected on days 2, 3, 4, 5, 6, and 7 of infection. Each treatment condition was analyzed in duplicate plates per experiment.
Supernatant samples were analyzed for the viral capsid protein, HIV p24, by a sensitive p24 alphaLISA according to the manufacturer's protocol (Perkin-Elmer, Waltham, MA). Treatment conditions were analyzed in duplicate plates, and each supernatant was analyzed in duplicate on a 96-well alphaLISA plate. These were then fit to a sigmoid standard curve to extrapolate HIV p24 levels in pg/mL within the assay limits of detection.

[6] = system: Zika virus; settings: Vero cells, 1 mM; cited from earlier work
[7] = Akata/Akata, Table 1, read-out: EBV EC50
[8] = read-out: Result for compound (EC50/UM), EBV Akata/Akata, assay order Primary
[9] = Human betaherpesvirus 5, AD169 strain in HFF cells, Table 1, read-out: HCMV EC50

SMILES	CC50 at 72 h [1] [µM]	activity against EBV [2]	EC50 [2, 7] [µM]	EC50 [2, 8] [µM]	EC50 ([2]; read-out: EC50 against EBV) [µM]	CC50 [3] [µM]	EC50 ([4]; Human betaherpesvirus 5, AD169, HFF, approximate, read-out: EC50 against HCMV) [µM]	EC50 [4, 9] [µM]	CC50 ([3]; HFF cells, Table 1, read-out: HCMV CC50) [µM]	EC50 ([4]; Human betaherpesvirus 5, AD169, HFF, read-out: HCMV EC50) [µM]	levels of HIV p24 viral capsid protein [5]	antiviral activity against HCMV [4]	Zika virus proliferation [6]
CC(C)C(=O)OCC1=C[C@@H](O)[C@H](n2ccc(NO)nc2=O)O1 [Compound 10, 3′-Deoxy-3′,4′-didehydro-4-N-hydroxy-5′-O-isobutyroyl-cytidine]	> 50	slightly diminishes the activity	29.9	29.9	7.6 to 38.7	> 50	~0.03	0.03					
Nc1nc(O)c2ncn(COC(CO)CO)c2n1 [Ganciclovir, ganciclovir, reference compound]									> 150	0.55			
Nc1ccn([C@@H]2OC(CO)=C[C@H]2O)c(=O)n1 [ddhC, 3′-Deoxy-3′,4′-didehydro-cytidine, reference compound]	> 50	five-fold less active than compound 8; also recorded: only weakly inhibited	38.7	38.7	7.6 to 38.7	> 50		> 50			no reduction	does not display antiviral activity	reduce Zika virus proliferation
